The text below walks through data of publication PMC12508063, “Chloroindazole based estrogen receptor β ligands with favorable pharmacokinetics promote functional remyelination and visual recovery” (Scientific Reports, 2025).

The conditions of series [1]: plasma.
In the next series the test system is primary mouse OPCs. Put plainly: OL differentiation in primary mouse OPC culture (MBP, DAPI). Type of series: cell-based. Particulars: 10 nM and 100 nM, concentration-dependent.
The conditions of series [2]: hepatocytes.
The subject of the next series is EAE mice. The series is described as follows: EAE clinical disease score. Type of series: in vivo, C57BL/6J mouse. Particulars: 5 mg/kg/day SC from peak disease. Here is the method: EAE induction and treatment: EAE was induced in 8–10-week-old wild-type C57BL/6J mice using MOG₃₅-₅₅ peptide[11],[14],[23]–[25]. Mice were scored daily using a standard clinical scale (0–5) and tested for their ability to stay on a rotarod. […] At peak disease (18–22 days post-immunization), animals were grouped into EAE+Vehicle, EAE+K102, and EAE+K110.
Fig. 3 Experimental design for treatment effects in EAE. (A) Experimental plan. […] Following emulsion injection, mice were injected with pertussis (PTX). Mice were scored for their clinical EAE score daily. EAE mice (red) show signs of disease starting at days 8–17. At peak disease between the days […], therapeutic treatment started and continued daily until the end of the experiment (D35-45). […] N = 6–8 mice/group. Two-Way unbalanced ANOVA with Dunnett’s multiple comparisons test was performed. […]
EAE induction and treatment: Eight to ten-week-old wild-type C57BL/6J mice were induced with active EAE using MOG35-55 peptide as previously described (1-5). […] Animals were scored daily for clinical EAE scores as follows: 0, unaffected; 1, complete tail limpness; 2, failure to right upon attempt to roll over; 3, partial hind limb paralysis; 4, complete hind limb paralysis; […]. At peak disease 18-22 dpi, mice were scored and separated into 3 groups: EAE+V, EAE+SHK-K102, and EAE+K110. […]

For series [3] the following is noted: hepatocytes, 0.25 h.
Series [4] can be described thus: Stability in human plasma. Type of series: in vitro ADME.
For series [5] the following is noted: plasma. The source holds these as a separate data set.
The next series addresses CYP1A2 (Homo sapiens, UniProt P05177). Put plainly: in vitro.
In series [6] the test system is multiple sclerosis patients. Particulars: oral estriol combined with glatiramer acetate (GA), Phase 2 trial; cited from earlier work.

Chain of CYP1A2 (P05177 whole entry): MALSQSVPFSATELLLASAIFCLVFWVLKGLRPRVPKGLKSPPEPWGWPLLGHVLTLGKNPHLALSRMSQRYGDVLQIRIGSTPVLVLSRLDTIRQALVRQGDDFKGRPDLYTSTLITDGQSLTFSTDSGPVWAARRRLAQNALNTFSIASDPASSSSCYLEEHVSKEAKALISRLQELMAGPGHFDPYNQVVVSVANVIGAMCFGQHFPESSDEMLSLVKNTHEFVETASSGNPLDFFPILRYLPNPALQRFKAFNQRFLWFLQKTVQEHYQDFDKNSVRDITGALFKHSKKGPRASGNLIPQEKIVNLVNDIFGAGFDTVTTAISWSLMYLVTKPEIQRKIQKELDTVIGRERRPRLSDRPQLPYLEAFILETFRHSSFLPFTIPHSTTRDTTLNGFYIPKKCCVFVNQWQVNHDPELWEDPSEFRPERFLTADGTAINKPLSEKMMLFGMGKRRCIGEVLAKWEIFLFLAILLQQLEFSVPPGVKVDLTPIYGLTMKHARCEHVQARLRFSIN
Excerpt for primary mouse OPCs: Mouse and Human primary cell cultures: Primary OPC/OL culture were isolated from the cortices of postnatal day 0–1 C57BL/6J mice of both sexes, using established protocols[11],[20],[21]. Mouse OPC and Neuronal Co-cultures: Primary neuronal cultures were established in Neurobasal medium with B27 and plated on poly-L-lysine-coated coverslips. After 12 days, OPCs were isolated, counted, and added to neuronal cultures and media was replaced with neuronal and proliferation media for 3 days, then switched to maturation media that maintained both neurons and OLs. Human iPSC-derived OPCs (Tempo’s iOligo™) were expanded, cryopreserved, and later plated on Matrigel-coated coverslips. After 3 days in growth medium, cells were treated for 3 weeks with T3 containing maturation medium. Differentiation into myelin-producing OLs was assessed using O4 (OL surface marker on pre-OLs) and myelin basic protein (MBP) immunohistochemistry. In all conditions compounds or vehicle were added to culture during differentiation for either 5 days (mouse) or 18 days (human).
Immunocytochemistry and Image Analysis of cell cultures: After treatment, cells were fixed and stained for MBP and DAPI. Coverslips were imaged using a confocal microscope at 10× and 40× objectives. Cell densities were quantified using ImageJ and normalized to control conditions. MBP-positive cells, their process extensions, and highly branched OLs were counted to assess differentiation. Co-culture images were analyzed for MBP and β3-tubulin colocalization using JACoP[22] in ImageJ, with results validated by manual quantification.
Primary OL Progenitor cells (OPC) and Neuronal Cultures: OPC and cortical neuronal cultures were prepared from the cortices of postnatal day P0-P1 C57BL/6J mice of both sexes, following established protocols (1, 2);(3). The single-cell suspension was divided into two tubes. One tube was treated with warm Neuronal Basal media, counted, and plated onto poly-L-lysine (PLL)-coated glass coverslips. The second tube was resuspended in glial growth medium, composed of DMEM-F12 supplemented with 10% fetal bovine serum, and placed in a PLL-coated culture flask for 8–10 days until confluent. Primary OPCs were then isolated by shaking and either co-cultured with primary neurons or plated onto poly-D-lysine-coated glass coverslips (three coverslips per condition, 2x10^6 cells per coverslip). The OPCs were allowed to attach for three days, followed by five days in differentiating media (DMEM-F12 with Sato media containing triiodothyronine and thyroxine) supplemented with various analogues and remyelinating compounds. For comparison, a negative control (vehicle, consisting of the media and ethanol mixture used to dissolve the analogues and remyelinating compounds) and a normal control (differentiating media alone) were included in the experiments.
Quantification of Mature OLs and Co-culture axon myelination: At the conclusion of the treatment period, cells were fixed and subjected to immunocytochemistry to evaluate myelin basic protein (MBP) expression, co-stained with the nuclear marker DAPI (shown in blue). […] Cell counting was performed using the ImageJ multipoint tool, and cell densities were calculated by dividing the counts by the image area (mm²). […]
To assess OL differentiation, the number of MBP-positive (MBP+) cells and process extensions exceeding the diameter of the cell body were quantified.

Take `Oc1ccc(-n2nc3ccc(O)cc3c2Cl)cc1` [Compound K101, IndCl]: the “Protein Binding (% Bound) Human” value in [1] came to 98.05%. Also, the “number of MBP+ cells vs vehicle” value with primary mouse OPCs is given as “significantly increased”. Further, in [2], the “Hepatocyte Stability (Human) CLint” value is listed as 78.30 µL/min/mg protein. In series [2] (0.25 h), the “Hepatocyte Stability (Human) % Remaining (15 min)” value was 57.83%. The EAE clinical disease entry in the series with EAE mice is “decrease in EAE clinical disease”. Also, the “Hepatocyte Stability (Mouse) % Remaining (15 min)” value in series [3] turned out to be 10.94%. In [4], the “% Remaining at 6 hr in Human Plasma” value is 91.37%. Moreover, in series [5], the “Protein Binding (% Bound) Mouse” value came out at 97.74%.

The inhibition is the drop in the measured response relative to a control, in per cent. Compound `Cc1nc2c([nH]1)c(=O)n(C)c(=O)n2Cc1ccco1` [Furafylline] showed an inhibition at 10 µM at CYP1A2 of 91.7%.

As for `C[C@]12CC[C@@H]3c4ccc(O)cc4CC[C@H]3[C@@H]1C[C@@H](O)[C@@H]2O` [estriol], in series [6], the “reduction in annualized relapse rate compared to placebo” value is 32%.
